The values that follow come from patent publication US20210238162A1, “CHEMICAL COMPOUNDS” (GlaxoSmithKline Intellectual Property Development Limited, priority 2015, published 2021).

Bounds are passed on as bounds.

T1 sequence (O60760 whole entry): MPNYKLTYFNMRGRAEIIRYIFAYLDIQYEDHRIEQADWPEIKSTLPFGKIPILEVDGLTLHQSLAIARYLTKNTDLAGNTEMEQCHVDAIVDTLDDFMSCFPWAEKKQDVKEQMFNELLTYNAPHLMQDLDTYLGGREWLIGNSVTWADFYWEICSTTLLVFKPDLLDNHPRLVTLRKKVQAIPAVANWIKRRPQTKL

One experiment has as its target T1, haematopoietic prostaglandin D synthase (H-PGDS) (Homo sapiens, UniProt O60760).
T1 construct: Full length human H-PGDS cDNA (Invitrogen Ultimate ORF IOH13026) was amplified by PCR; made in house; host or cells: E. coli BL21 (DE3*), vector pET22b+
Nature of the experiment: H-PGDS RapidFire High Throughput Mass Spectrometry Assay. It counts as biochemical. The conditions noted are these: H-PGDS RapidFire MS assay, mean pIC50; read-out: Potency Range (mean pIC50) (converted). As for the experimental part: The H-PGDS RapidFire™ mass spectrometric assay monitors conversion of prostaglandin H2 (PGH2) to prostaglandin D2 (PGD2) by haematopoietic prostaglandin D synthase (H-PGDS). In the assay format described here, the substrate (PGH2) is formed in situ by the action of cyclooxygenase-2 on arachidonic acid. This first step is set up to be fast, and generates a burst of PGH2 at ˜10 μM. The PGH2 is then further converted to PGD2 by the H-PGDS enzyme. […] Plates are then read on the RapidFire™ high throughput solid phase extraction system (Agilent) which incorporates a solid phase extraction step coupled to a triple quadrupole mass spectrometer (AB SCIEX). Relative levels of PGD2 and PGF2α, which acts as a surrogate for substrate, are measured and a percent conversion calculated.
Full length human H-PGDS cDNA (Invitrogen Ultimate ORF IOH13026) was amplified by PCR with the addition of a 5′ 6-His tag and TEV protease cleavage site. The PCR product was digested with Ndel and Xhol and ligated into pET22b+ (Merck Novagen®). Expression was carried out in E. coli strain BL21 (DE3*) using auto-induction Overnight Express™ Instant TB medium (Merck Novagen®) supplemented with 1% glycerol. The culture was first grown at 37° C. and the temperature was reduced to 25° C. when OD600 reached 2.0. Cells were harvested by centrifugation after a further 18 hr. 10 g of E. coli cell pellet was suspended to a total volume of 80 mL in lysis buffer (20 mM Tris-Cl pH 7.5, 300 mM NaCl, 20 mM imidazole, 5 mM β-mercaptoethanol, 10% glycerol). 1 mg/mL protease inhibitors (Protease Inhibitor Cocktail Set Ill, Merck Calbiochem®) and 1 mg/mL lysozyme were added to the cell suspension. The suspension was then sonicated for 5 min (UltraSonic Processor VCX 750, Cole-Parmer Instrument Co.) with a micro probe (50% amplitude, 10 sec on/off) and then centrifuged at 100,000 g for 90 min (at 4° C.). The supernatant was loaded onto a Ni-NTA HiTrap column (5 mL, GE Heathcare, pre-equilibrated in lysis buffer). The column was washed with 10 column volumes of lysis buffer and eluted with lysis buffer containing 500 mM imidazole. The pooled protein peak fractions were concentrated using a 10 kDa centrifugal filter at 3500 g and 4° C. (Amicon Ultra-15 centrifugal filter unit with Ultracel-10 membrane from Millipore). Further purification of the concentrated protein was carried out using gel filtration chromatography on a HiLoad 26/600 Superdex 75 preparative grade column (GE Healthcare Life Sciences) using 50 mM Tris pH 7.5, 50 mM NaCl, 1 mM dithiothreitol, 1 mM MgCl2. Fractions containing the protein were pooled, concentrated as described above, and stored at −80° C.
The full length human COX-2 gene (accession number L15326) was amplified by PCR to generate an EcoRI-HindIII fragment containing an in-frame FLAG tag. This was subcloned into pFastBac 1 (Invitrogen). The COX2 FLAG plasmid was recombined into the baculovirus genome according to the BAC-to-BAC protocol described by Invitrogen. Transfection into Spodoptera frugiperda (Sf9) insect cells was performed using Cellfectin (Invitrogen), according to the manufacturer's protocol. […] Recombinant virus was added at a Multiplicity of Infection (MOI) of 5 and the culture was allowed to continue for 3 days. Cells were harvested using a continuous feed centrifuge run at 2500 g at a rate of approximately 2 L/min with cooling. The resultant cell slurry was re-centrifuged in pots (2500 g, 20 min, 4° C.) and the cell paste was stored at −80° C. […] The suspension was sonicated in 500 mL batches for 8×5 seconds at 10 u amplitude with the medium tip of an MSE probe sonicator and subsequently incubated at 4° C. for 90 min with gentle stirring. The lysate was centrifuged at 12000 rpm for 45 min at 4° C. in a Sorvall SLA1500 rotor. The supernatant (1400 mL) was added to 420 mL of 20 mM Tris-Cl pH 7.4, 150 mM NaCl, 0.1 mM EDTA to reduce the concentration of n-octyl-β-D-glucopyranoside to 1% w/v.
Regarding `COc1cc2ncc(C(=O)NC3CCN(c4nnnn4C)CC3)cc2cc1F` [Example 46, 6-Fluoro-7-methoxy-N-(1-(1-methyl-1H-tetrazol-5-yl)piperidin-4-yl)quinoline-3-carboxamide], the IC50 is 100 to 1000 nM.

Regarding `CC(N[C@H]1CC[C@H](NC(=O)c2cnc3cc(OC(F)F)c(Cl)cc3c2)CC1)C(F)F` (mixture of isomers) [Example 125, 6-Chloro-7-(difluoromethoxy)-N-(trans-4-((1,1-difluoropropan-2-yl)amino)cyclohexyl)quinoline-3-carboxamide], the IC50 is less than 10 nM.

Consider `CC(O)(CO[C@H]1CC[C@H](NC(=O)c2cnc3cc(OC(F)F)c(F)cc3c2)CC1)C(F)(F)F` (stereo partly drawn) [Example 76, 7-(Difluoromethoxy)-6-fluoro-N-(trans-4-(3,3,3-trifluoro-2-hydroxy-2-methylpropoxy)cyclohexyl)quinoline-3-carboxamide], for which the IC50 was 10 to 79.4 nM.

For `CCc1cccc2cc(C(=O)Nc3nccs3)cnc12` [Example 105, 8-Ethyl-N-(thiazol-2-yl)quinoline-3-carboxamide], the IC50 is 100 to 1000 nM.

Regarding `CO[C@H]1CC[C@H](NC(=O)c2cnc3cc(OC(F)F)c(F)cc3c2)CC1` [Example 55, 7-(Difluoromethoxy)-6-fluoro-N-(trans-4-methoxycyclohexyl)quinoline-3-carboxamide], the IC50 was 10 to 79.4 nM.

With `O=C1CC(NC(=O)c2cnc3cc(OC(F)F)c(F)cc3c2)c2ccccc2N1` (centres unmarked) [Example 54, 7-(Difluoromethoxy)-6-fluoro-N-(2-oxo-1,2,3,4-tetrahydroquinolin-4-yl)quinoline-3-carboxamide], the IC50 was 10 to 79.4 nM.

Consider `CC(C)(O)[C@H]1CC[C@H](NC(=O)c2cnc3cc(C4CC4)ccc3c2)CC1` [Example 192, 7-Cyclopropyl-N-(trans-4-(2-hydroxypropan-2-yl)cyclohexyl)quinoline-3-carboxamide], for which the IC50 is less than 10 nM.

With `CC(C)(O)[C@H]1CC[C@H](NC(=O)c2cnc3cc(N4CCC4)c(F)cc3c2)CC1` [Example 162, 7-(Azetidin-1-yl)-6-fluoro-N-(trans-4-(2-hydroxypropan-2-yl)cyclohexyl)quinoline-3-carboxamide], the IC50 was less than 10 nM.

As to `C[C@]1(O)C[C@H](NC(=O)c2cnc3cc(OC(F)F)c(Cl)cc3c2)C1` [Example 137, 6-Chloro-7-(difluoromethoxy)-N-((1r,3r)-3-hydroxy-3-methylcyclobutyl)quinoline-3-carboxamide], the IC50 was 10 to 79.4 nM.

As to `COc1cc2ncc(C(=O)NC3CCN(c4nnnn4C)CC3)cc2cc1C` [Example 29, 7-Methoxy-6-methyl-N-(1-(1-methyl-1H-tetrazol-5-yl)piperidin-4-yl)quinoline-3-carboxamide], the IC50 is 10 to 79.4 nM.

As for `C[C@@H]1CNC(=O)[C@H]1NC(=O)c1cnc2cc(N3CC(F)C3)c(F)cc2c1` [Example 206, 6-Fluoro-7-(3-fluoroazetidin-1-yl)-N-((3S,4R)-4-methyl-2-oxopyrrolidin-3-yl)quinoline-3-carboxamide], the IC50 is 10 to 79.4 nM.

Turning to `CC(NC[C@H]1CC[C@H](NC(=O)c2cnc3cc(OC(F)F)c(F)cc3c2)CC1)C(F)F` (mixture of isomers) [Example 75, 7-(Difluoromethoxy)-N-(trans-4-(((1,1-difluoropropan-2-yl)amino)methyl)cyclohexyl)-6-fluoroquinoline-3-carboxamide], the IC50 is 10 to 79.4 nM.

For `Cc1c(OC(F)F)c(Cl)cc2cc(C(=O)N[C@H]3CC[C@H](C(C)(C)O)CC3)cnc12` [Example 229, 6-Chloro-7-(difluoromethoxy)-N-((trans)-4-(2-hydroxypropan-2-yl)cyclohexyl)-8-methylquinoline-3-carboxamide], the IC50 was 10 to 79.4 nM.

For `CC(C)(O)[C@H]1CC[C@H](NC(=O)c2cnc3cc(N4CCCC4)c(F)cc3c2)CC1` [Example 163, 6-Fluoro-N-(trans-4-(2-hydroxypropan-2-yl)cyclohexyl)-7-(pyrrolidin-1-yl)quinoline-3-carboxamide], the IC50 is 100 to 1000 nM.

For `C[C@H](N[C@H]1CC[C@H](NC(=O)c2cnc3cc(OC(F)F)c(F)cc3c2)CC1)C(F)F` [Example 70, 7-(Difluoromethoxy)-N-(trans-4-(((S)-1,1-difluoropropan-2-yl)amino)cyclohexyl)-6-fluoroquinoline-3-carboxamide], the IC50 is less than 10 nM.

For the molecule `CC(C)(O)[C@H]1CC[C@H](NC(=O)c2cnc3cc(N=[N+]=[N-])c(Cl)cc3c2)CC1` [Example 168, 7-Azido-6-chloro-N-(trans-4-(2-hydroxypropan-2-yl)cyclohexyl)quinoline-3-carboxamide], the IC50 is 10 to 79.4 nM.

Turning to `C[C@@H](N[C@H]1CC[C@H](NC(=O)c2cnc3cc(OC(F)F)c(Br)cc3c2)CC1)C(F)F` [Example 158, 6-Bromo-7-(difluoromethoxy)-N-(trans-4-(((R)-1,1-difluoropropan-2-yl)amino)cyclohexyl)quinoline-3-carboxamide], the IC50 was less than 10 nM.

With `C[C@@H](N[C@H]1CC[C@H](NC(=O)c2cnc3cc(OC(F)F)c(F)cc3c2)CC1)C(F)(F)F` [Example 62, 7-(Difluoromethoxy)-6-fluoro-N-(trans-4-(((R)-1,1,1-trifluoropropan-2-yl)amino)cyclohexyl)quinoline-3-carboxamide], the IC50 was 10 to 79.4 nM.

As for `NCCCOC[C@H]1CC[C@H](NC(=O)c2cnc3cc(OC(F)F)ccc3c2)CC1` [Example 23, N-(trans-4-((3-Aminopropoxy)methyl)cyclohexyl)-7-(difluoromethoxy)quinoline-3-carboxamide], the IC50 is 10 to 79.4 nM.

Turning to `C[C@]1(O)C[C@@H](NC(=O)c2cnc3cc(C4CCC4)c(Cl)cc3c2)C1` [Example 180, 6-Chloro-7-cyclobutyl-N-((1s,3s)-3-hydroxy-3-methylcyclobutyl)quinoline-3-carboxamide], the IC50 was 10 to 79.4 nM.

`CC(C)(F)c1cc2ncc(C(=O)N[C@H]3CC[C@H](C(C)(C)O)CC3)cc2cc1Cl` [Example 230, 6-Chloro-7-(2-fluoropropan-2-yl)-N-((trans)-4-(2-hydroxypropan-2-yl)cyclohexyl)quinoline-3-carboxamide]: the IC50 is less than 10 nM.

Consider `Cn1nnnc1N1CCC(NC(=O)c2cnc3cc(C4CC4)c(C#N)cc3c2)CC1` [Example 24, 6-Cyano-7-cyclopropyl-N-(1-(1-methyl-1H-tetrazol-5-yl)piperidin-4-yl)quinoline-3-carboxamide], for which the IC50 is 10 to 79.4 nM.

For `O=C(N[C@H]1CC[C@H](C(O)C(F)(F)F)CC1)c1cnc2cc(OC(F)F)ccc2c1` (stereo partly drawn) [Example 15, 7-(Difluoromethoxy)-N-(trans-4-(2,2,2-trifluoro-1-hydroxyethyl)cyclohexyl)quinoline-3-carboxamide], the IC50 was less than 10 nM.

Regarding `CC(C)(O)[C@H]1CC[C@H](NC(=O)c2cnc3cc(C4CC4)c(F)cc3c2)CC1` [Example 42, 7-Cyclopropyl-6-fluoro-N-(trans-4-(2-hydroxypropan-2-yl)cyclohexyl)quinoline-3-carboxamide], the IC50 was less than 10 nM.

Staying with this experiment, now noted: in at least one experimental run; read-out: H-PGDS pIC50 value (converted).
Regarding `COc1cc2ncc(C(=O)NC3CCN(c4nnnn4C)CC3)cc2cc1F` [Example 46, 6-Fluoro-7-methoxy-N-(1-(1-methyl-1H-tetrazol-5-yl)piperidin-4-yl)quinoline-3-carboxamide], the IC50 was 126 nM.

Regarding `O=C(N[C@H]1CC[C@H](C(O)C(F)(F)F)CC1)c1cnc2cc(OC(F)F)ccc2c1` (stereo partly drawn) [Example 15, 7-(Difluoromethoxy)-N-(trans-4-(2,2,2-trifluoro-1-hydroxyethyl)cyclohexyl)quinoline-3-carboxamide], the IC50 is 7.94 nM.
